The source of these data is US9938261B2, “Heterocyclic compounds and methods of use thereof” (AMBIT BIOSCIENCES CORPORATION, priority 2011, dated 2018).

The target of one experiment is T1, FLT3 (Homo sapiens, UniProt P36888).
T1 construct: made in house
T1 sequence (P36888 27-993): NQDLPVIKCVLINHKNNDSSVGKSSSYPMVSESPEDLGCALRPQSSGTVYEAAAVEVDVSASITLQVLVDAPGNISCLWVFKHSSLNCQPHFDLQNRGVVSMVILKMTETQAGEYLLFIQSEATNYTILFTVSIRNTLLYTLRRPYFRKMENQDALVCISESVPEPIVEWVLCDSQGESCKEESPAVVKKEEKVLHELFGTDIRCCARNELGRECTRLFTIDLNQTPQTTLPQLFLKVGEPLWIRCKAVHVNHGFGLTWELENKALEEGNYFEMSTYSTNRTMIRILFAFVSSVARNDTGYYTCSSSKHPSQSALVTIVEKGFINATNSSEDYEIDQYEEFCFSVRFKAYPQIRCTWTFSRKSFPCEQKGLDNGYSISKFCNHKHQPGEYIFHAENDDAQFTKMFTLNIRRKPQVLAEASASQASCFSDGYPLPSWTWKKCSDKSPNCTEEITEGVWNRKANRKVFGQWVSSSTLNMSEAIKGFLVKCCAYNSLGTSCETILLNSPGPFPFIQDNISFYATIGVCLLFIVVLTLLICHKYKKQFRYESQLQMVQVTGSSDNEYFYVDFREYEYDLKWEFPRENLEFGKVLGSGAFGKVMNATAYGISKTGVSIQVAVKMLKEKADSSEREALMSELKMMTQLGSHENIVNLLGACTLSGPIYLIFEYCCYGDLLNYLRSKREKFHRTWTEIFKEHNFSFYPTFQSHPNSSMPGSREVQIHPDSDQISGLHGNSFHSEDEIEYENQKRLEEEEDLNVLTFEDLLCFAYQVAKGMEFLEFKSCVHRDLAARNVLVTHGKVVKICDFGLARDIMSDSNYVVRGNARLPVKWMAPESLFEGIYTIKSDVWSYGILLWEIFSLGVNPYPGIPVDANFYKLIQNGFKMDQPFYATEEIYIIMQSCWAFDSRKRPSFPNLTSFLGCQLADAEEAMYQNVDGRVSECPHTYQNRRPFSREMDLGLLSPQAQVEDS
The experiment can be described thus: Competition binding assay, FLT3 Kd. To be noted: competition binding. The method, boiled down: (§1)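 First, biotinylated affinity ligands were loaded onto streptavidin magnetic beads and blocked. Kinase, beads and compound were then equilibrated 1 hour at room temperature, washed, and eluted with non-biotinylated ligand. Eluted kinase was measured by qPCR, with Kd fitted from an eleven-point threefold dilution series.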

The target of experiment [1] is kinase panel containing either 386 or 392 distinct kinases. Briefly: Kinase selectivity score S10 from competition binding panel. To be noted: 10 μM, panel of 386 or 392 distinct kinases. Summed up:
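S10 is the number of kinases with percent-of-control under 10, divided by all distinct wild-type kinases tested, from a single 10 μM concentration. Binding measured by qPCR of kinase recovered from ligand-coated beads after 1 h equilibrium at room temperature; kinases were phage fusions or DNA-tagged HEK-293 products.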

The target in another experiment is CSF1R (Homo sapiens, UniProt P07333). Briefly: Competition binding assay, CSF1R Kd. More on the design: made in house. To be noted: competition binding. Summed up:
as §1

Molecules are shown by their SMILES. Where only a bound is given, the exact number is not on record here.

CSF1R, sequence (P07333 20-972): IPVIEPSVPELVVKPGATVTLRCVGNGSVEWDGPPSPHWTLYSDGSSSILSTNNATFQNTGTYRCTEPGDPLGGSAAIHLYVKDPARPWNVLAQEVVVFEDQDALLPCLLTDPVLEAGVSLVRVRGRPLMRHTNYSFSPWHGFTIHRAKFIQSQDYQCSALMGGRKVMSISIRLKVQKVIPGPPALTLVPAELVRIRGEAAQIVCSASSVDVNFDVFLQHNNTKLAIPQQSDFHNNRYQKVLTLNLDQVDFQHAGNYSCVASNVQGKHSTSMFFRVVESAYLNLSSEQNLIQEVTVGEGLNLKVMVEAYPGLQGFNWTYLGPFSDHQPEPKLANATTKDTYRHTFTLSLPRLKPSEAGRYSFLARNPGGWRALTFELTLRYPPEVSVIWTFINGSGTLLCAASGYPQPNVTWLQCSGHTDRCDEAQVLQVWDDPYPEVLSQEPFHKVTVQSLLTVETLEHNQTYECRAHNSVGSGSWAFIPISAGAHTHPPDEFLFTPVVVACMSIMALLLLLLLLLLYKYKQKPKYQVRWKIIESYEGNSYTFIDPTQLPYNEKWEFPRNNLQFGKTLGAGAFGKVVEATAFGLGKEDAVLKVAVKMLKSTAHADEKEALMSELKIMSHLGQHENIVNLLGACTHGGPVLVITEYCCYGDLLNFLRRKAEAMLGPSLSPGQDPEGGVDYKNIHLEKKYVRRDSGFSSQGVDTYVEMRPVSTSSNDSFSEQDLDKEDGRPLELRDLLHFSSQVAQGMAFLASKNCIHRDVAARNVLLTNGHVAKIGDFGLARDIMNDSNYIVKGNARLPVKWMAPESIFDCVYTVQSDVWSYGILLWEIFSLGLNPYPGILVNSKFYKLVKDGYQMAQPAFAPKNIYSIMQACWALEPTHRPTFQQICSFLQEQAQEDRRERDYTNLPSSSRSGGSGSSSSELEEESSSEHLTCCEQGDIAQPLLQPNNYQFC

In general, Kd refers to the constant that tells how readily two partners part at equilibrium. A high value points to weaker binding. As for `OC[C@@H]1CCC[C@@H](Nc2nc3ccc(Cn4cnc5cc(F)cnc54)cc3s2)C1` [Example 192, ((1R,3R)-3-((6-((6-fluoro-3H-imidazo[4,5-b]pyridin-3-yl)methyl)benzo[d]thiazol-2-yl)amino)cyclohexyl)methanol], the Kd on FLT3 fell in the range of 1000 to 5000 nM; on CSF1R, 5 to 20 nM. Also, the “Kinase specificity S(10)” value in experiment [1] is reported as “B (0.01<B≤0.02)”.
Regarding `Cn1cc(-c2ccc3c(c2)ncn3Cc2ccc3nc(N[C@@H]4CCCC[C@H]4O)sc3c2)c(C(F)(F)F)n1` [Example 185, (1R,2R)-2-((6-((5-(1-methyl-3-(trifluoromethyl)-1H-pyrazol-4-yl)-1H-benzo[d]imidazol-1-yl)methyl)benzo[d]thiazol-2-yl)amino)cyclohexanol], the results for the equilibrium dissociation constant (Kd) on FLT3 and at CSF1R were ≤ 200 nM and 5 to 20 nM, respectively. For the same compound, the “Kinase specificity S(10)” value in experiment [1] is on record as “B (0.01<B≤0.02)”.
For the compound `O[C@@H]1[C@H](O)CCC[C@H]1Nc1nc2ccc(Cn3cnc4cc(F)cnc43)cc2s1` [Example 193, (1R,2S,3R)-3-((6-((6-fluoro-3H-imidazo[4,5-b]pyridin-3-yl)methyl)benzo[d]thiazol-2-yl)amino)cyclohexane-1,2-diol], the results for the Kd at FLT3 and on CSF1R were 1000 to 5000 nM and 5 to 20 nM, respectively. The “Kinase specificity S(10)” value in experiment [1] is recorded as “A (A≤0.01)”.
Regarding `N#Cc1cc2ncn(Cc3ccc4nc(N[C@@H]5CCCC[C@H]5O)oc4c3)c2cc1Cl` [Example 195, 6-chloro-1-((2-(((1R,2R)-2-hydroxycyclohexyl)amino)benzo[d]oxazol-6-yl)methyl)-1H-benzo[d]imidazole-5-carbonitrile], the results for the Kd on FLT3 and on CSF1R were 1000 to 5000 nM and 20 to 50 nM, respectively. The “Kinase specificity S(10)” value in experiment [1] is “A (A≤0.01)”.
Take `O[C@@H]1CCCC[C@H]1Nc1nc2ccc(Cn3cnc4cc(OC5COC5)ccc43)cc2s1` [Example 182, (1R,2R)-2-((6-((5-(oxetan-3-yloxy)-1H-benzo[d]imidazol-1-yl)methyl)benzo[d]thiazol-2-yl)amino)cyclohexanol]: the Kd at FLT3 was 200 to 1000 nM; at CSF1R, ≤ 5 nM. In addition, the “Kinase specificity S(10)” value in experiment [1] is recorded as “A (A≤0.01)”.
On the same counts, the results for `Fc1cnc2c(c1)ncn2Cc1ccc2nc(Nc3ccccc3)sc2c1` [Example 191, 6-((6-fluoro-3H-imidazo[4,5-b]pyridin-3-yl)methyl)-N-phenylbenzo[d]thiazol-2-amine] are 1000 to 5000 nM, 20 to 50 nM and “A (A≤0.01)”.
Regarding `O[C@@H]1CCCC[C@H]1Nc1nc2ccc(Cc3cnc4cc(N5CCOCC5)ccn34)cc2s1` [Example 187, (1R,2R)-2-((6-((7-morpholinoimidazo[1,2-a]pyridin-3-yl)methyl)benzo[d]thiazol-2-yl)amino)cyclohexanol], the figures for the Kd on FLT3 and on CSF1R were > 5000 nM and 5 to 20 nM, respectively. For the same compound, the “Kinase specificity S(10)” value in experiment [1] was “A (A≤0.01)”.
On the same counts, the results for `Cc1cc(C)c2c(c1)ncn2Cc1ccc2nc(N[C@@H]3CCCC[C@H]3O)sc2c1` [Example 189] are 200 to 1000 nM, 5 to 20 nM and “A (A≤0.01)”.
Take `O[C@@H]1CCCC[C@H]1Nc1nc2ccc(Cc3cnc4ccc(Br)nn34)cc2s1` [Example 177, (1R,2R)-2-((6-((6-bromoimidazo[1,2-b]pyridazin-3-yl)methyl)benzo[d]thiazol-2-yl)amino)cyclohexanol]: the dissociation constant (Kd) at FLT3 is ≤ 200 nM; on CSF1R, ≤ 5 nM. Moreover, the “Kinase specificity S(10)” value in experiment [1] is recorded as “C (C>0.02)”.
With `O[C@@H]1CCCC[C@H]1Nc1nc2ccc(Cn3cnc4cnc(C(F)(F)F)nc43)cc2s1` [Example 105, (1R,2R)-2-((6-((2-(trifluoromethyl)-9H-purin-9-yl)methyl)benzo[d]thiazol-2-yl)amino)cyclohexanol], the values for the Kd on FLT3 and on CSF1R were 200 to 1000 nM and 5 to 20 nM, respectively. Also, the “Kinase specificity S(10)” value in experiment [1] is on record as “A (A≤0.01)”.
Take `CC(C)(O)C#Cc1cnc2c(c1)ncn2Cc1ccc2nc(N[C@@H]3CCCC[C@H]3O)sc2c1` [Example 104, (1R,2R)-2-((6-((6-(3-hydroxy-3-methylbut-1-yn-1-yl)-3H-imidazo[4,5-b]pyridin-3-yl)methyl)benzo[d]thiazol-2-yl)amino)cyclohexanol]: the Kd on FLT3 is ≤ 200 nM; at CSF1R, ≤ 5 nM. Besides, the “Kinase specificity S(10)” value in experiment [1] was “A (A≤0.01)”.
Regarding `CN1CCN(c2ccn3c(Cc4ccc5nc(N[C@@H]6CCCC[C@H]6O)sc5c4)cnc3c2)CC1` [Example 188, (1R,2R)-2-((6-((7-(4-methylpiperazin-1-yl)imidazo[1,2-a]pyridin-3-yl)methyl)benzo[d]thiazol-2-yl)amino)cyclohexanol], the values for the Kd at FLT3 and on CSF1R were 1000 to 5000 nM and 5 to 20 nM, respectively. The “Kinase specificity S(10)” value in experiment [1] is recorded as “A (A≤0.01)”.
As for `O[C@@H]1CCCC[C@H]1Nc1nc2ccc(Cc3cnc4cccc(F)n34)cc2s1` [Example 186, (1R,2R)-2-((6-((5-fluoroimidazo[1,2-a]pyridin-3-yl)methyl)benzo[d]thiazol-2-yl)amino)cyclohexanol], the figures for the Kd on FLT3 and at CSF1R were ≤ 200 nM and 5 to 20 nM, respectively. The “Kinase specificity S(10)” value in experiment [1] is given as “B (0.01<B≤0.02)”.
Turning to `CN1CCN(c2ccc3ncc(Cc4ccc5nc(N[C@@H]6CCCC[C@H]6O)sc5c4)n3n2)CC1` [Example 178, (1R,2R)-2-((6-((6-(4-methylpiperazin-1-yl)imidazo[1,2-b]pyridazin-3-yl)methyl)benzo[d]thiazol-2-yl)amino)cyclohexanol], the results for the Kd on FLT3 and on CSF1R were 200 to 1000 nM and 5 to 20 nM, respectively. In experiment [1], the “Kinase specificity S(10)” value is “B (0.01<B≤0.02)”.
Regarding `Cc1cc(Br)cc2ncn(Cc3ccc4nc(N[C@@H]5CCCC[C@H]5O)sc4c3)c12` [Example 190, (1R,2R)-2-((6-((5-bromo-7-methyl-1H-benzo[d]imidazol-1-yl)methyl)benzo[d]thiazol-2-yl)amino)cyclohexanol], the dissociation constant Kd was 200 to 1000 nM at FLT3 and 20 to 50 nM on CSF1R. Further, in experiment [1], the “Kinase specificity S(10)” value is “A (A≤0.01)”.
Regarding `CS[C@@H]1CCCC[C@H]1Nc1nc2ccc(Cn3cnc4cc(F)cnc43)cc2s1` [Example 181, 6-((6-fluoro-3H-imidazo[4,5-b]pyridin-3-yl)methyl)-N-((1R,2R)-2-(methylthio)cyclohexyl)benzo[d]thiazol-2-amine], the Kd on FLT3 lay within 1000 to 5000 nM; at CSF1R it was 5 to 20 nM. In experiment [1], the “Kinase specificity S(10)” value is given as “B (0.01<B≤0.02)”.
For the compound `OC[C@H]1CC[C@@H](Nc2nc3ccc(Cn4cnc5cc(F)cnc54)cc3s2)CC1` [Example 180, (cis-4-((6-((6-fluoro-3H-imidazo[4,5-b]pyridin-3-yl)methyl)benzo[d]thiazol-2-yl)amino)cyclohexyl)methanol], the dissociation constant (Kd) on FLT3 was in the range of 1000 to 5000 nM; at CSF1R, 20 to 50 nM. Also, the “Kinase specificity S(10)” value in experiment [1] is “A (A≤0.01)”.
For the compound `OC[C@H]1CCC[C@@H](Nc2nc3ccc(Cn4cnc5cc(F)cnc54)cc3s2)C1` [Example 194, ((1S,3R)-3-((6-((6-fluoro-3H-imidazo[4,5-b]pyridin-3-yl)methyl)benzo[d]thiazol-2-yl)amino)cyclohexyl)methanol], the equilibrium dissociation constant (Kd) lay in the range of 200 to 1000 nM at FLT3 and 5 to 20 nM on CSF1R. Moreover, the “Kinase specificity S(10)” value in experiment [1] is listed as “B (0.01<B≤0.02)”.
For `OC[C@H]1CC[C@H](Nc2nc3ccc(Cn4cnc5cc(F)cnc54)cc3s2)CC1` [Example 179, (trans-4-((6-((6-fluoro-3H-imidazo[4,5-b]pyridin-3-yl)methyl)benzo[d]thiazol-2-yl)amino)cyclohexyl)methanol], the Kd is 1000 to 5000 nM on FLT3 and 5 to 20 nM on CSF1R. In addition, the “Kinase specificity S(10)” value in experiment [1] is on record as “B (0.01<B≤0.02)”.
Regarding `C=Cc1ccc2c(c1)ncn2Cc1ccc2nc(N[C@@H]3CCCC[C@H]3O)sc2c1` [Example 183, (1R,2R)-2-((6-((5-vinyl-1H-benzo[d]imidazol-1-yl)methyl)benzo[d]thiazol-2-yl)amino)cyclohexanol], the Kd on FLT3 was 200 to 1000 nM; at CSF1R, ≤ 5 nM. Besides, in experiment [1], the “Kinase specificity S(10)” value is listed as “B (0.01<B≤0.02)”.
For `O[C@@H]1CCCC[C@H]1Nc1nc2ccc(Cn3cnc4cc(C5=CCCCC5)ccc43)cc2s1` [Example 184, (1R,2R)-2-((6-((5-(cyclohex-1-en-1-yl)-1H-benzo[d]imidazol-1-yl)methyl)benzo[d]thiazol-2-yl)amino)cyclohexanol], in that order: 200 to 1000 nM, 5 to 20 nM and “A (A≤0.01)”.
